The target in one test is T1, KIT L576P (Homo sapiens, UniProt P10721, L576P).
T1 construct: purchased DiscoverX Corporation (Fremont, CA), contract assay
Nature of the test: DiscoverX KINOMEscan kinase competition binding assay, KIT L576P. Conditions: 2 μM compound concentration. The protocol: (§1) DiscoverX® KINOMEscan™ In Vitro Kinase Competition Binding Assay
(§2) Compound activity (% binding) is monitored by measuring the amount of kinase captured in test versus control samples by using a qPCR method that detects the associated DNA label. The binding activity is converted to % inhibition and an IC50 value is determined for CSF-1R fold-selectivity assessment.
(§3) Assays to monitor binding to a 468-kinase panel are conducted at DiscoverX® Corporation (Fremont, CA). Test compound is provided as a 10 mM stock in 100% DMSO and evaluated at […] final concentrations. Kinases are tagged with DNA for qPCR detection. […] The liganded beads are blocked with excess biotin and washed with blocking buffer (Pierce SeaBlock, 1% BSA, 0.05% Tween 20 and 1 mM DTT) to remove unbound ligand and to reduce nonspecific binding. […] Test compound is prepared as a 40×stock in 100% DMSO and directly diluted into the assay. All reactions are performed in polypropylene 384-well plates in a final volume of 0.02 mL. […] The kinase concentration in the eluates is measured by qPCR. […]
(§4) The percent inhibition values, and the 3-point concentration response data are subsequently determined and analyzed with NGR software, and non-standard IC50 values are calculated from the resulting curve fit. […]

The test system of the next test is 468-kinase panel. In words: DiscoverX KINOMEscan kinase competition binding assay, whole panel. Further details: species or system human. Conditions: of 468 protein kinases, 2 μM compound concentration. Here is the method: as §1, §2
Assays to monitor binding to a 468-kinase panel are conducted at DiscoverX® Corporation (Fremont, CA). […] Kinases are tagged with DNA for qPCR detection. […] The liganded beads are blocked with excess biotin and washed with blocking buffer (Pierce SeaBlock, 1% BSA, 0.05% Tween 20 and 1 mM DTT) to remove unbound ligand and to reduce nonspecific binding. […] Test compound is prepared as a 40×stock in 100% DMSO and directly diluted into the assay. All reactions are performed in polypropylene 384-well plates in a final volume of 0.02 mL. […] The kinase concentration in the eluates is measured by qPCR. The results for primary screen binding interactions are reported as ‘% Ctrl’, where lower numbers indicate stronger hits in the matrix.
Percent of control (% Ctrl) calculation: […]
as §4

A further test deals with T2, KIT V559D V654A (Homo sapiens, UniProt P10721, V559D/V654A).
T2 construct: purchased DiscoverX Corporation (Fremont, CA), contract assay
T2 sequence (P10721 26-976 V559D/V654A): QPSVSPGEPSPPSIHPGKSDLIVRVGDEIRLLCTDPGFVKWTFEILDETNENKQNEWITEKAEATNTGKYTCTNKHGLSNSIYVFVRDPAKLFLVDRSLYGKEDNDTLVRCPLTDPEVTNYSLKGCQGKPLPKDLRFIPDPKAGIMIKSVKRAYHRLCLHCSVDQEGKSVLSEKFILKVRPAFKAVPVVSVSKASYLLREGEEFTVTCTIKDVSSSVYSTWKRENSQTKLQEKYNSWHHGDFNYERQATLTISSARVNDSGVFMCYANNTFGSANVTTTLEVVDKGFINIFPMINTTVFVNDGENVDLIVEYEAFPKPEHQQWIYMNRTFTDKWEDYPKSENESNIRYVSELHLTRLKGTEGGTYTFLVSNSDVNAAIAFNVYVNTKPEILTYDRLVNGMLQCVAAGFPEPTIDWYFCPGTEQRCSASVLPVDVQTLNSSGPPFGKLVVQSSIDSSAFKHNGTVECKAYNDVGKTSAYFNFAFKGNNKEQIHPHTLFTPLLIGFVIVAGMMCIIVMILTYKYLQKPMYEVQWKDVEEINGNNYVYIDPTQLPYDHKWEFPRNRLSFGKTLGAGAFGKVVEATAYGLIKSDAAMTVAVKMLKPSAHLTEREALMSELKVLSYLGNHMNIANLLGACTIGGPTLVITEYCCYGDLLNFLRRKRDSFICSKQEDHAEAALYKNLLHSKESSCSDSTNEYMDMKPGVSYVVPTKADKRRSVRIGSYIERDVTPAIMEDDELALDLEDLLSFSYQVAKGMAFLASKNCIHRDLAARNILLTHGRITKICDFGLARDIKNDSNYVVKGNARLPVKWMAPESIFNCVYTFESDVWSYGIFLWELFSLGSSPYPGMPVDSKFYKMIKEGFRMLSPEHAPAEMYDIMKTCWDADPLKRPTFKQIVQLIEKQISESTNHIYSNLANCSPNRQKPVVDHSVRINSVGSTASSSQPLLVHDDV
Nature of the test: DiscoverX KINOMEscan kinase competition binding assay, KIT V559D V654A. To be noted: 2 μM compound concentration. The protocol:
as §1, §2, §3, §4

In the next test the target is T3, KIT V559D (Homo sapiens, UniProt P10721, V559D).
T3 construct: purchased DiscoverX Corporation (Fremont, CA), contract assay
T3 sequence (P10721 26-976 V559D): as the sequence (P10721 26-976 V559D/V654A) above, with A629V counted along it
In words: DiscoverX KINOMEscan kinase competition binding assay, KIT V559D. Conditions: 2 μM compound concentration. Here is the method:
as §1, §2, §3, §4

Another test addresses T4, PDGFRB (Homo sapiens, UniProt P09619).
T4 construct: purchased DiscoverX Corporation (Fremont, CA), contract assay
Nature of the test: DiscoverX KINOMEscan kinase competition binding assay, PDGFRB. The protocol: as §1, §2, §3, §4

The target of the next test is KIT (Homo sapiens, UniProt P10721). In words: biochemical. The protocol:
as §1, §2, §3, §4

The target of the next test is T5, human PDGFRβ (Homo sapiens, UniProt P09619).
T5 construct: enzyme fragment for Enzyme Fragment Complementation (β-galactosidase fragment); host or cells: U2OS
T5 sequence (P09619 33-1106): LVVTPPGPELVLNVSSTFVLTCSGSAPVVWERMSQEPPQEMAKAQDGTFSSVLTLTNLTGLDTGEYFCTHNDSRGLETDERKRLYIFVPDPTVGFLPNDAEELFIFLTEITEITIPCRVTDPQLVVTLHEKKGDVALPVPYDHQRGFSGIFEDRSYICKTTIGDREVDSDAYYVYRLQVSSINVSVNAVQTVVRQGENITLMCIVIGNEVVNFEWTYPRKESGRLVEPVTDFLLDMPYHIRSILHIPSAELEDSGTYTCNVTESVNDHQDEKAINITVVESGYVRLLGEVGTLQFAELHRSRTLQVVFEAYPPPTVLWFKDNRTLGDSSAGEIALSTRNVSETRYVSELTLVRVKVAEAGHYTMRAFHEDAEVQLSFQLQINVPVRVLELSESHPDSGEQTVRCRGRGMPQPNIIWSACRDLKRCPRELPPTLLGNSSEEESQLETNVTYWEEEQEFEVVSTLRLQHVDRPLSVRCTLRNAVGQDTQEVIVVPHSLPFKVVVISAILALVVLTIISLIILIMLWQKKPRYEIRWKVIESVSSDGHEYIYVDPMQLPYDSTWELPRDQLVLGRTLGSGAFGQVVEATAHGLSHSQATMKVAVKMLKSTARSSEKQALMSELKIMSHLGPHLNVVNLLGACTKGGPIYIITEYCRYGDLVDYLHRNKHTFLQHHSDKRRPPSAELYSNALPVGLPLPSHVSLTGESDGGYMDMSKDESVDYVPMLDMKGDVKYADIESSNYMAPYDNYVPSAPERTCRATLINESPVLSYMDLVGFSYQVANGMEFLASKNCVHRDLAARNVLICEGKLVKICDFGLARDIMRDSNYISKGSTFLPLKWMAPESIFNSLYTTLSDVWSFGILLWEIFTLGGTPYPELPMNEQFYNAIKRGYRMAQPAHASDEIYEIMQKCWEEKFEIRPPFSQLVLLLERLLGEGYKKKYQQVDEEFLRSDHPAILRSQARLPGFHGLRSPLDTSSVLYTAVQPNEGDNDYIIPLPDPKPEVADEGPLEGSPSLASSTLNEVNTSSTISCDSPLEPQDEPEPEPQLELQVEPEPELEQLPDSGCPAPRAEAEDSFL
Nature of the test: DiscoverX PathHunter RTK cell based functional assay, PDGFRβ. Conditions: PDGFRβ U2OS cells, 3 nM PDGF-BB agonist, n=4.

Test [1] relates to P301S mouse tauopathy model. Conditions: cited from earlier work.
Test [2] deals with 5xFAD model of Alzheimer's disease. Conditions: cited from earlier work.

SMILES strings stand for the structures. Bounds are passed on as bounds.

T4 sequence (P09619 33-1106): as above
T1 sequence (P10721 26-976 L576P): as the sequence (P10721 26-976 V559D/V654A) above, with D534V, L551P, A629V counted along it
Sequence of KIT (P10721 26-976): as the sequence (P10721 26-976 V559D/V654A) above, with D534V, A629V counted along it
Procedure for human PDGFRβ: DiscoverX® PathHunter Receptor Tyrosine Kinase (RTK) Cell Based Functional Assay
For in vitro PDGFRβ (Accession NM_002609, Part No. 93-0493C3) and c-Kit (Accession NM_000222, Part No. 93-0853C3) cellular assays, the test compounds are prepared in DMSO to make up a 10 mM stock solution. The stock solution is serially diluted two-fold in DMSO to obtain a twenty-point curve with final compound concentrations ranging from 20.0 μM to 0.019 nM.
DiscoverX® PathHunter Receptor Tyrosine Kinase (RTK) cell based functional assays are utilized to profile compounds using Enzyme Fragment Complementation technology with human PDGFRβ U2OS cells and human c-Kit U2OS cells. Cells are continuously cultured from cell passage 5 up to cell passage 30 in AssayComplete™ Cell Culture Kit-103 (DiscoverX®, 92-3103G) media containing 500 μg/mL G418 and 250 μg/mL hygromycin. PDGFRβ or c-Kit cells (27 μL) in media (DiscoverX®, 93-0563R16B) are seeded at 1.5×10^4 cells/well into all wells of a Corning 384 poly-d-lysine coated white plate. The cell plates are then incubated overnight at 37° C., 5.0% CO2. Compound serial dilutions are then added to rows A-P, columns 3-22. DMSO and inhibitor controls are added to rows A-P, columns 1-2 and 23-24, respectively. Cell plates with compound or controls are incubated for 1 hour at 37° C., 5.0% CO2. […] After 1 hour, cell plates are read on a chemiluminescence capable plate reader. […]

For `COc1ccc(COc2ncc(Cc3ccnc(-c4cnn(C)c4)n3)cc2OC)nc1` [Example 1, 4-({5-Methoxy-6-[(5-methoxypyridin-2-yl)methoxy]pyridin-3-yl}methyl)-2-(1-methyl-1H-pyrazol-4-yl)pyrimidine], the inhibition at 2 µM was 96.4% on KIT L576P; 84% on KIT V559D V654A; 99.5% on KIT V559D; 90.8% at PDGFRB; 99.4% against KIT. The “number of kinases showing less than 35% control activity (or >65% inhibition)” value in the test with 468-kinase panel is 3 kinases. In addition, the IC50 at human PDGFRβ is more than 20 µM.

On to `CC1(C)CC=C(c2nc(C3CC(C)(C)OC(C)(C)C3)ccc2NC(=O)c2nc(C#N)c[nH]2)CC1` [JNJ-40346527], for which the “effect on tau phosphorylation and aggregation” value in [1] is “inhibit tau phosphorylation and aggregation”.

Consider `FC(F)(F)c1ccc(CNc2ccc(Cc3c[nH]c4ncc(Cl)cc34)cn2)cn1` [PLX3397], for which, in [2], the “effect on amyloid pathology” value is “Reductions in intraneuronal amyloid, neuritic plaque formation and pre-fibrillar and fibrillar oligomers”; the “effect on cognitive function” value is “improvements in cognitive function”.

One may read the inhibition as the share of the control response that was lost under treatment. A high value points to a response far below the control. Broadly, the IC50 is the concentration that inhibits the measured activity by half.

(Values after patent US12577229B2, “Substituted {5-methoxy-6-[(5-methoxypyridin-2-yl)methoxy]pyridin-3-yl} methyl compounds as CSF-1R inhibitors” (Eli Lilly and Company, priority 2020, dated 2026).)
